Assay results as given in patent US9078436B2 (priority 2012, dated 2015).
Like-named read-outs stand apart in the source and are kept apart here.

Key:
[1] = pH of 0.1M solution of the acids tested (Table 1); assay type: physicochemical
[2] = Conversion of PNMDC to MITC as a function of pH; assay type: physicochemical; details: FIGS. 1 and 2; over three hours and over five minutes
Source text: In the decomposition of monoalkyldithiocarbamate salt, the rate at which alkyl isothiocyanate is formed can be determined by the pH of the solution. […] At lower pH levels, a competing reaction, particularly hydrolysis to form carbon disulfide and methylammonium ion, can occur, thus lowering the yield of MITC.
While good conversion can occur over a range of pH values, the results shown in FIGS. 1 and 2 indicate an optimum conversion occurring at about pH 3 (e.g., 2.5-3.5).
An HPLC method was developed to allow the reaction mixtures to be analyzed in real time. This procedure stopped the decomposition of PNMDC by converting any unreacted dithiocarbamate ion to a stable nickel salt:
This compound was then detected by its UV absorption at 365 nm. MITC is unaffected by the presence of the Ni^++ ion and is detected by its UV absorption at 230 nm.

pH of 0.1M Solution ([1]; listed as Citric Acid (2))	Compound	pH of 0.1M Solution [1]	pH of optimum conversion of PNMDC to MITC [2]
	CC(=O)O [Acetic Acid]	2.88	
	O=C(O)c1ccccc1 [Benzoic Acid]	2.61	
2.88	O=C(O)CC(O)(CC(=O)O)C(=O)O [Citric Acid (1), Citric Acid]	2.06	
	O=CO [Formic Acid]	2.39	
	CNC(=S)[S-].[K+] [PNMDC, potassium N-methyldithiocarbamate]		~3
